Results published in ChEMBL document CHEMBL5233255, “Natural and nature-inspired stilbenoids as antiviral agents” (Eur J Med Chem, 2020).
≈ marks a conversion by molar mass, not a printed value.

How the values were obtained:
[1] = system: Human immunodeficiency virus 1; experiment: Antiviral activity against HIV-1 infected in human C8166 cells assessed as inhibition of viral replication; type: functional, organism-based; details: Human immunodeficiency virus 1, C8166
[2] = Cytotoxicity against human C8166 cells assessed as inhibition of cell growth by MTT assay; type: toxicity, cell-based
[3] = Cytotoxicity against human MT4 cells expressing eGFP under control of HIV-1 LTR promoter sequence; type: toxicity, cell-based
[4] = Inhibition of HIV-1 integrase catalysed 3' processing activity by densitometric analysis; parameters: species or system Human immunodeficiency virus 1
[5] = Inhibition of recombinant HIV-1 integrase catalysed strand transfer activity measured after 60 mins by electrochemiluminescent plate-based assay; parameters: species or system Human immunodeficiency virus 1
[6] = Selectivity index, ratio of CC50 for cytotoxicity against human MT4 cells expressing eGFP under control of HIV-1 LTR promoter sequence to EC50 for antiviral activity against HIV-1 infected in human MT4 cells expressing eGFP under control of HIV-1 LTR promoter sequence; type: toxicity, cell-based; details: read-out: Ratio CC50/EC50
[7] = system: Human immunodeficiency virus 1; experiment: Antiviral activity against VSV pseudo-typed HIV-1 infected in human MT4 cells expressing eGFP under control of HIV-1 LTR promoter sequence; type: functional, organism-based; details: Human immunodeficiency virus 1, MT4
[8] = Cytotoxicity against human Huh-7 cells assessed as reduction in cell viability incubated for 3 days by MTT assay; type: toxicity, cell-based; details: time 3 day
dengue virus type 2 = experiment: Antiviral activity against Dengue virus 2 New Guinea C infected in human Huh-7 cells assessed as reduction in virus induced cytopathic effect incubated for 3 days by trypan blue staining based assay; type: functional, organism-based; details: Huh-7, 72 h
[9] = Selectivity index, ratio of CC50 for cytotoxicity against human Huh-7 cells to EC50 for Dengue virus 2 New Guinea C infected in human Huh-7 cells; type: toxicity, cell-based; details: read-out: Ratio CC50/EC50
Human alphaherpesvirus 2 = experiment: Antiviral activity against HSV-2 333 infected in African green monkey Vero cells incubated for 3 days by plaque reduction assay; type: functional, organism-based; details: Human alphaherpesvirus 2, 333, Vero, 72 h
Human alphaherpesvirus 1 [10] = experiment: Antiviral activity against HSV-1 clinical isolate infected in African green monkey Vero cells incubated for 3 days by plaque reduction assay; type: functional, organism-based; details: Human alphaherpesvirus 1, Vero, 72 h
Human alphaherpesvirus 1 [11] = experiment: Antiviral activity against HSV-1 15577 infected in African green monkey Vero cells incubated for 3 days by plaque reduction assay; type: functional, organism-based; details: Human alphaherpesvirus 1, 15577, Vero, 72 h
[12] = Therapeutic index, ratio of CC50 for cytotoxicity against human C8166 cells to EC50 for antiviral activity against HIV-1 infected in C8166 cells; type: toxicity, cell-based; details: read-out: Ratio CC50/EC50
Hepatitis C virus [13] = experiment: Antiviral activity against Hepatitis C virus infected in human Huh7.5 cells assessed as reduction in viral replication; type: functional, organism-based, Hepacivirus hominis
[14] = Cytotoxicity against human Huh7.5 cells infected with Hepatitis C virus assessed as reduction in cell viability; type: toxicity, cell-based, Huh-7.5
[15] = Cytotoxicity against human A549 cells assessed as reduction in cell viability by Alamar blue assay; type: toxicity, cell-based
Influenza A virus [16] = experiment: Antiviral activity against influenza A virus A/PR/8/34 (H1N1) infected in human A549 cells assessed as inhibition of RANTES production incubated for 48 hrs by ELISA; type: functional, organism-based; details: A549, 48 h
[17] = Cytotoxicity against HEK293T cells; type: toxicity, cell-based, HEK-293T; details: human, read-out: TC50 (the source's name)
[18] = system: Human immunodeficiency virus 1; experiment: Antiviral activity against HIV-1 infected in HEK293T cells; type: functional, organism-based; details: Human immunodeficiency virus 1, HEK-293T
Influenza A virus [19] = experiment: Antiviral activity against influenza A virus A/Guangdong/243/72 ([…]) infected in MDCK cells assessed as inhibition of virus-induced cytopathic effect; type: functional, organism-based
[20] = Selectivity index, ratio of CC50 for cytotoxicity against MDCK cells to IC50 for influenza A virus A/Guangdong/243/72 ([…]) infected in MDCK cells; type: toxicity, cell-based; details: dog, read-out: Ratio CC50/IC50
Hepatitis C virus [21] = experiment: Antiviral activity against Hepatitis C virus genotype 2 infected in human Huh7.5 cells assessed as reduction in viral replication by RT-PCR assay; type: functional, organism-based, Hepacivirus hominis; details: genotype 2, Huh7.5
Hepatitis C virus [22] = experiment: Antiviral activity against Hepatitis C virus genotype 2 infected in renilla luciferase-J6/JFH1 RNA-transfected human Huh7.5 cells assessed as reduction in viral replication incubated for 72 hrs by qRT-PCR analysis; type: functional, organism-based, Hepacivirus hominis; details: genotype 2, Huh7.5, 72 h
Hepatitis C virus [23] = experiment: Antiviral activity against Hepatitis C virus genotype 1 infected in Bart79I RNA-transfected human Huh7.5 cells assessed as reduction in viral replication incubated for 24 to 72 hrs by RT-PCR assay; type: functional, organism-based, Hepacivirus hominis; details: genotype 1, Huh7.5
[24] = Cytotoxicity against HCV RNA-transfected human Huh7.5 cells assessed as reduction in cell viability; type: toxicity, cell-based, Huh-7.5; details: HCV RNA-transfected Huh7.5 cells

OC[C@H]1O[C@@H](Oc2cc(O)cc(/C=C/c3ccc(O)cc3)c2)[C@H](O)[C@@H](O)[C@@H]1O [PICEID]
EC50 [1]: > 200 µg/mL
CC50 [2]: > 200 µg/mL

O=S(=O)(O)c1cc(/N=N/c2cc(S(=O)(=O)O)c3ccccc3c2O)ccc1/C=C/c1ccc(/N=N/c2cc(S(=O)(=O)O)c3ccccc3c2O)cc1S(=O)(=O)O
CC50 [3]: 59 µM
IC50 [4]: 0.32 µM
IC50 [5]: 0.18 µM
selectivity ratio [6]: 19.2
EC50 [7]: 3.07 µM

COc1cc(/C(C#N)=C\c2cc3ccccc3s2)cc(OC)c1OC
CC50 at 72 h [8]: 1.9 µM
EC50 (dengue virus type 2): 0.00722 µM
selectivity ratio [9]: 263

Oc1cc(O)cc(-c2cc3ccc(O)cc3o2)c1 [MORACIN M]
IC50 (Human alphaherpesvirus 2): 2.5 µg/mL (≈ 10.3 µM)
IC50 (Human alphaherpesvirus 1 [10]): 2.5 µg/mL (≈ 10.3 µM)
IC50 (Human alphaherpesvirus 1 [11]): 2.5 µg/mL (≈ 10.3 µM)

O=S(=O)([O-])Oc1cc(/C=C/c2ccc(O)cc2)cc(O[C@@H]2O[C@H](CO)[C@@H](O)[C@H](O)[C@H]2O)c1.[Na+]
EC50 [1]: 89.7 µg/mL
selectivity ratio [12]: 5.87
CC50 [2]: 527 µg/mL

Oc1ccc([C@H]2c3c(O)cc(O)cc3[C@H]3c4c(cc(O)cc4[C@@H]2c2cc(/C=C/c4cc(O)cc5c4[C@H](c4cc(O)cc(O)c4)[C@@H](c4ccc(O)cc4)O5)ccc2O)O[C@@H]3c2ccc(O)cc2)cc1 [VITISIN A]
EC50 (Hepatitis C virus [13]): 0.035 µM
CC50 [14]: > 10 µM
CC50 [15]: 22.4 µM
EC50 (Influenza A virus [16]): 0.27 µM

Oc1ccc([C@@H]2c3c(O)cc(O)cc3[C@H]3c4c(cc(O)cc4[C@@H]2O)O[C@@H]3c2ccc(O)cc2)cc1
EC50 (Hepatitis C virus [13]): 5.74 µM
CC50 [14]: > 10 µM

Oc1ccc(-c2c(-c3cc(O)cc(O)c3)sc3ccccc23)cc1
CC50 [17]: 131 µM
EC50 [18]: 34.4 µM

Oc1ccc(-c2ccc(-c3cc(O)cc(O)c3)[nH]2)cc1
EC50 [18]: > 75 µM

O=[N+]([O-])c1ccc(/C=C/c2ccc([N+](=O)[O-])cc2S(=O)(=O)O)c(S(=O)(=O)O)c1
IC50 [4]: > 111 µM
IC50 [5]: > 111 µM

O=S(=O)([O-])Oc1ccc(/C=C/c2cc(O)cc(O[C@@H]3O[C@H](CO)[C@@H](O)[C@H](O)[C@H]3O)c2)cc1.[Na+]
EC50 [1]: > 200 µg/mL
CC50 [2]: > 2000 µg/mL

Oc1ccc(-c2cc(-c3cc(O)cc(O)c3)on2)cc1
EC50 [18]: > 75 µM

OC[C@H]1O[C@@H](Oc2cc(O)cc(/C=C/c3ccc(O)cc3)c2O[C@@H]2O[C@H](CO)[C@@H](O)[C@H](O)[C@H]2O)[C@H](O)[C@@H](O)[C@@H]1O
EC50 [1]: 176 µg/mL (≈ 310 µM)
selectivity ratio [12]: > 1.13
CC50 [2]: > 200 µg/mL

COc1cc(/C=C/c2cc(O)cc(O)c2)ccc1O
IC50 (Influenza A virus [19]): 4.28 µg/mL (≈ 16.6 µM)
selectivity ratio [20]: 8.99

CC(C)=CCc1c(O)cc(-c2cc3ccc(O)cc3o2)cc1O [MORACIN C]
IC50 (Human alphaherpesvirus 2): 2.5 µg/mL (≈ 8.06 µM)
IC50 (Human alphaherpesvirus 1 [10]): 2.5 µg/mL (≈ 8.06 µM)
IC50 (Human alphaherpesvirus 1 [11]): 2.5 µg/mL (≈ 8.06 µM)

O=S(=O)([O-])O[C@H]1[C@H](O)[C@@H](O)[C@H](Oc2cc(O)cc(/C=C\c3ccc(O)cc3)c2)O[C@@H]1CO.[Na+]
EC50 [1]: 84.8 µg/mL
selectivity ratio [12]: 1.17
CC50 [2]: 98.8 µg/mL

OC[C@H]1O[C@@H](Oc2cc(O)cc(-c3cc4ccc(O)cc4o3)c2)[C@H](O)[C@@H](O)[C@@H]1O
IC50 (Human alphaherpesvirus 2): 2.5 µg/mL (≈ 6.18 µM)
IC50 (Human alphaherpesvirus 1 [10]): 2.5 µg/mL (≈ 6.18 µM)
IC50 (Human alphaherpesvirus 1 [11]): 2.5 µg/mL (≈ 6.18 µM)

O=S(=O)([O-])O[C@H]1[C@H](Oc2cc(O)cc(/C=C/c3ccc(O)cc3)c2)O[C@H](CO)[C@@H](O)[C@@H]1O.[Na+]
EC50 [1]: 153 µg/mL
selectivity ratio [12]: > 13
CC50 [2]: > 2000 µg/mL

Oc1cc(O)cc(-c2ccc3cnccc3c2)c1
EC50 [18]: > 75 µM

CC(=O)Oc1ccc(/C=C/c2cc(OC(C)=O)cc3c2C(c2cc(OC(C)=O)cc(OC(C)=O)c2)C(c2ccc(OC(C)=O)cc2)O3)cc1 (stereo unspecified)
EC50 (Hepatitis C virus [21]): 4.7 µM
EC50 (Hepatitis C virus [22]): 2.37 µM
EC50 (Hepatitis C virus [23]): 10.4 µM
CC50 [24]: > 10 µM

Oc1ccc(-c2sc3ccccc3c2-c2cc(O)cc(O)c2)cc1
CC50 [17]: 118 µM
EC50 [18]: 45.1 µM

Oc1ccc(-c2oc3ccccc3c2-c2cc(O)cc(O)c2)cc1
CC50 [17]: 108 µM
EC50 [18]: 65.1 µM
